These results are taken from patent publication US8378104B2 (OSI Pharmaceuticals, LLC, priority 2010, dated 2013).

SMILES strings stand for the structures.

One experiment has as its target T1, TAK1-TAB1 fusion protein (Homo sapiens, UniProt O43318).
T1 construct: purchased Carna
T1 sequence (O43318 with tags, fused parts or gaps limits assumed): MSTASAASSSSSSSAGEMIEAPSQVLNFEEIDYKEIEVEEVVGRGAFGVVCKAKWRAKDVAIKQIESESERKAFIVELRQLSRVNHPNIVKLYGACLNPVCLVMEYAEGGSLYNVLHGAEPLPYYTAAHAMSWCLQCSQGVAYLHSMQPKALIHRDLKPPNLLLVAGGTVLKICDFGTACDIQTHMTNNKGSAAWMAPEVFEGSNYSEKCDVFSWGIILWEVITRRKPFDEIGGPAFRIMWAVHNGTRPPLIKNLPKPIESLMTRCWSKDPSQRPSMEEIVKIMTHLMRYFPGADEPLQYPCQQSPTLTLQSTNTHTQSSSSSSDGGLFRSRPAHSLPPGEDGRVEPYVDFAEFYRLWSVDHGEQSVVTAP
Put plainly: TAK1 biochemical assay (AlphaScreen, GST-MAP2K7 substrate). As to conditions: TAK1-TAB1 fusion protein, GST-MAP2K7 substrate; read-out: mean TAK1 IC50 (Col. A).

The next experiment relates to p-p38 in HCT-116 cells. As to the kind of experiment: Phospho-p38 Meso Scale ELISA assay, TNFα-stimulated HCT-116 cells. The format is cell-based. The following applies: Homo sapiens, read-out: mean HCT-116 p-p38 ELISA IC50 (Col. C). Here is the method: Detailed below are ELISA assays for pJNK and p38, and a TAK1 biochemical assay. […] In Table 1, Col.
• 1. Plate HCT-116 cells at 25,000 per well in 100 uL in 96 well clear dishes in normal growth medium. Day 2: • 1. Aspirate medium and replace with 90 μl reduced serum growth medium (1% FCS), incubate for 2 hours at 37° C. • 2. Make drugs at 10× in reduced serum medium and add 10 uL per well. • 3. Incubate at 37° C. for 4 hrs. • 4. Bring capture plates to room temperature. • 5. Block with 150 μl Blocking Solution (provided with kit) (600 mg Blocker A into 20 mL 1× Wash Buffer per plate) at room temperature with shaking. • 6. Wash plates 4× with 200 μl 1× wash buffer (10× provided with kit) before transferring lysates. • 7. Dilute TNFα to […] in reduced serum medium (this makes a 10× working stock). • 8. Add 10 μl TNFα to all wells except negative control wells, final concentration is 10 ng/mL. • 9. Incubate at 37° C. for 10 minutes. • 10. Remove medium by flicking into sink • 11. Wash cells with 100 uL ice cold PBS. • 12. Remove PBS by flicking into sink and patting on paper towels. • 13. Lyse cells in 50 μl ice cold 1× Complete Lysis Buffer plus Phosphatase and Protease inhibitors (all provided with kit) (10 mL Tris Lysis Buffer+200 μl Protease inhibitor solution+100 μl Phosphatase inhibitor I+100 μl Phosphatase inhibitor II). • 14. Incubate with shaking at 4° C. for 30 minutes. • 15. Transfer 45 μl to capture plate, cover with adhesive cover, and incubate at 4° C. over night with shaking. • Day 3: • 1. Wash plates 4× with 200 μl 1× wash buffer (10× provided with kit). • 2. […] Incubate at room temperature with shaking for 1 hour. • 4. Wash 4× with 200 μl 1× Wash Buffer. • 5. […] Read on Sector Imager. Phospho-p38 Meso Scale ELISA Assay Day 1: • 1. Plate HCT-116 cells at 25,000 per well in 100 uL in 96 well clear dishes in normal growth medium. zday 2: • 1. Aspirate medium and replace with 90 μl reduced serum growth medium (1% FCS), incubate for 2 hours at 37° C. • 2. Make drugs at 10× in reduced serum medium and add 10 uL per well. • 3. Incubate at 37° C. for 4 hrs. • 4. Bring capture plates to room temperature. • 5. Block with 150 μl Blocking Solution (provided with kit) (600 mg Blocker A into 20 mL 1× Wash Buffer per plate) at room temperature with shaking. • 6. Wash plates 4× with 200 μl 1× wash buffer (10× provided with kit) before transferring lysates. • 7. Dilute TNFα to […] in reduced serum medium (this makes a 10× working stock). • 8. Add 10 μl TNFα to all wells except negative control wells, final concentration is 10 ng/mL. • 9. Incubate at 37° C. for 10 minutes. • 10. Remove medium by flicking into sink • 11. Wash cells with 100 uL ice cold PBS. • 12. Remove PBS by flicking into sink and patting on paper towels. • 13. Lyse cells in 50 μl ice cold 1× Complete Lysis Buffer plus phosphatase and protease inhibitors (all provided with kit) (10 mL Tris Lysis Buffer+200 μl Protease inhibitor solution+100 μl Phosphatase inhibitor I+100 μl Phosphatase inhibitor II). • 14. Incubate with shaking at 4° C. for 30 minutes. • 15. Dilute lysates before transferring to capture plate with 100 μl Complete p38 Lysate • Dilution Buffer (provided with kit) (10 mL of Diluent 20±200 μl Protease inhibitor solution+100 μl Phosphatase inhibitor I+100 μl Phosphatase inhibitor II). • 16. Transfer 50 μl of diluted lysates to capture plate, cover with adhesive cover, and incubate at 4° C. over night with shaking. Day 3: • 1. Wash plates 4× with 200 μl 1× wash buffer (10× provided with kit). • 2. […] Incubate at room temperature with shaking for 1 hour. • 4. Wash 4× with 200 μl 1× Wash Buffer. • 5. […] Read on Sector Imager. TAK1 Biochemical Assay
(ELISA stands for enzyme-linked immunosorbent assay.)

Another experiment deals with pJNK in HCT-116 cells. Put plainly: Phospho-JNK (Thr183/Tyr185) Meso Scale ELISA assay, TNFα-stimulated HCT-116 cells. The format is cell-based. As to conditions: Homo sapiens, read-out: mean HCT-116 pJNK ELISA IC50 (Col. B). The method in brief:
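HCT-116 cells in 1% FCS medium were pretreated with compound for 4 hrs at 37° C, then stimulated with TNFα at 10 ng/mL final for 10 minutes. Lysates were taken in ice-cold lysis buffer with phosphatase and protease inhibitors, and phospho-JNK (Thr183/Tyr185) was measured by Meso Scale ELISA.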

What is called IC50 is the point on the concentration scale where inhibition reaches its midpoint. `Cc1nn(CC(O)CO)c(C)c1-c1cnc(N)c2oc(-c3cccc4cnccc34)cc12` (stereo not drawn) [Example 400, 3-{4-[7-amino-2-(isoquinolin-5-yl)furo[2,3-c]pyridin-4-yl]-3,5-dimethyl-1H-pyrazol-1-yl}propane-1,2-diol]: the IC50 on TAK1-TAB1 fusion protein was greater than 10 µM; in the experiment with p-p38 in HCT-116 cells, 1 to 10 µM; with pJNK in HCT-116 cells, 1 to 10 µM.
For `CC(=O)N1CCC(n2cc(-c3cnc(N)c4oc(-c5csc6cncnc56)cc34)cn2)CC1` [Example 260, 1-(4-{4-[7-amino-2-(thieno[3,2-d]pyrimidin-7-yl)furo[2,3-c]pyridin-4-yl]-1H-pyrazol-1-yl}piperidin-1-yl)ethanone], the IC50 on TAK1-TAB1 fusion protein was in the range of 0.1 to 1 µM; with p-p38 in HCT-116 cells, 1 to 10 µM; in the experiment with pJNK in HCT-116 cells, 1 to 10 µM.
Take `CC(=O)N1CCC(n2cc(-c3cnc(N)c4oc(-c5csc6ccccc56)cc34)cn2)CC1` [Example 219, 1-(4-{4-[7-amino-2-(1-benzothiophen-3-yl)furo[2,3-c]pyridin-4-yl]-1H-pyrazol-1-yl}piperidin-1-yl)ethanone]: the IC50 at TAK1-TAB1 fusion protein, with p-p38 in HCT-116 cells and in the experiment with pJNK in HCT-116 cells was 0.1 to 1 µM each time.
With `CC(=O)N1CCC(n2cc(-c3cnc(N)c4oc(-c5ccc6occc6c5)cc34)cn2)CC1` [Example 114, 1-(4-{4-[7-amino-2-(1-benzofuran-5-yl)furo[2,3-c]pyridin-4-yl]-1H-pyrazol-1-yl)piperidin-1-yl]ethanone], the IC50 at TAK1-TAB1 fusion protein is 1 to 10 µM; with p-p38 in HCT-116 cells, 0.1 to 1 µM; in the experiment on pJNK in HCT-116 cells, 0.1 to 1 µM.
As for `CC(=O)N1CCC(n2cc(-c3cnc(N)c4oc(-c5ccc(S(C)(=O)=O)cc5)cc34)cn2)CC1` [Example 129, 1-[4-(4-{7-amino-2-[4-(methylsulfonyl)phenyl]furo[2,3-c]pyridin-4-yl}-1H-pyrazol-1-yl)piperidin-1-yl]ethanone], the IC50 on TAK1-TAB1 fusion protein, in the experiment on p-p38 in HCT-116 cells and with pJNK in HCT-116 cells was greater than 10 µM throughout.
As to `CC(=O)N1CCC(n2cc(-c3cnc(N)c4oc(-c5cccc([N+](=O)[O-])c5)cc34)cn2)CC1` [Example 112, 1-(4-{4-[7-amino-2-(3-nitrophenyl)furo[2,3-c]pyridin-4-yl]-1H-pyrazol-1-yl}piperidin-1-yl)ethanone], the IC50 on TAK1-TAB1 fusion protein was less than 0.1 µM; with p-p38 in HCT-116 cells, 0.1 to 1 µM; in the experiment on pJNK in HCT-116 cells it was 0.1 to 1 µM.
For the compound `CC(=O)N1CCC(n2cc(-c3cnc(N)c4oc(-c5scc6c5OCCO6)cc34)cn2)CC1` [Example 109, 1-(4-{4-[7-amino-2-(2,3-dihydrothieno[3,4-b][1,4]dioxin-5-yl)furo[2,3-c]pyridin-4-yl]-1H-pyrazol-1-yl}piperidin-1-yl)ethanone], the results for the IC50 at TAK1-TAB1 fusion protein, with p-p38 in HCT-116 cells and in the experiment on pJNK in HCT-116 cells were 0.1 to 1 µM, 1 to 10 µM and 0.1 to 1 µM, respectively.
Turning to `Cc1nn(CC(C)(C)O)cc1-c1cnc(N)c2oc(-c3csc4cnccc34)cc12` [Example 289, 1-[4-(7-amino-2-thieno[2,3-c]pyridin-3-yl-furo[2,3-c]pyridin-4-yl)-3-methyl-pyrazol-1-yl]-2-methyl-propan-2-ol], the figures for the IC50 at TAK1-TAB1 fusion protein, in the experiment on p-p38 in HCT-116 cells and with pJNK in HCT-116 cells were 1 to 10 µM, 1 to 10 µM and 0.1 to 1 µM, respectively.
As to `CC(=O)N1CCC(n2cc(-c3cnc(N)c4oc(-c5cc(C(F)(F)F)cc(C(F)(F)F)c5)cc34)cn2)CC1` [Example 91, 1-[4-(4-{7-amino-2-[3,5-bis(trifluoromethyl)phenyl]furo[2,3-c]pyridin-4-yl}-1H-pyrazol-1-yl)piperidin-1-yl]ethanone], the IC50 on TAK1-TAB1 fusion protein is greater than 10 µM; in the experiment with p-p38 in HCT-116 cells, 1 to 10 µM; in the experiment on pJNK in HCT-116 cells, 1 to 10 µM.
Regarding `CC(=O)N1CCC(n2cc(-c3cnc(N)c4oc(-c5cccc6c5OC(F)(F)O6)cc34)cn2)CC1` [Example 191, 1-(4-{4-[7-amino-2-(2,2-difluoro-1,3-benzodioxol-4-yl)furo[2,3-c]pyridin-4-yl]-1H-pyrazol-1-yl}piperidin-1-yl)ethanone], the half-inhibitory concentration (IC50) at TAK1-TAB1 fusion protein, with p-p38 in HCT-116 cells and with pJNK in HCT-116 cells was 0.1 to 1 µM throughout.
`CC(=O)N1CCC(n2cc(-c3cnc(N)c4oc(-c5ccc6c(c5)OCO6)cc34)cn2)CC1` [Example 117, 1-(4-{4-[7-amino-2-(1,3-benzodioxol-5-yl)furo[2,3-c]pyridin-4-yl]-1H-pyrazol-1-yl}piperidin-1-yl)ethanone]: the IC50 at TAK1-TAB1 fusion protein, in the experiment with p-p38 in HCT-116 cells and in the experiment on pJNK in HCT-116 cells was 1 to 10 µM in each case.
With `CC(=O)N1CCC(n2cc(-c3cnc(N)c4oc(-c5cccc6c5CC(=O)N6)cc34)cn2)CC1` [Example 227, 4-{4-[1-(1-acetylpiperidin-4-yl)-1H-pyrazol-4-yl]-7-aminofuro[2,3-c]pyridin-2-yl}-1,3-dihydro-2H-indol-2-one], the figures for the IC50 at TAK1-TAB1 fusion protein, in the experiment with p-p38 in HCT-116 cells and with pJNK in HCT-116 cells were 0.1 to 1 µM, 1 to 10 µM and 1 to 10 µM, respectively.
As for `CC(C)(C)OC(=O)N1CCC(n2cc(-c3cnc(N)c4oc(-c5csc6cnccc56)cc34)cn2)CC1` [Example 300, 4-[4-(7-amino-2-thieno[2,3-c]pyridin-3-yl-furo[2,3-c]pyridin-4-yl)-pyrazol-1-yl]piperidine-1-carboxylic acid tert-butyl ester], the IC50 on TAK1-TAB1 fusion protein, in the experiment on p-p38 in HCT-116 cells and in the experiment on pJNK in HCT-116 cells was 0.1 to 1 µM in each case.
With `CC1(C)OC[C@@H](Cn2cc(-c3cnc(N)c4oc(-c5csc6cnccc56)cc34)cn2)O1` [Example 297, 4-[1-((R)-2,2-dimethyl-[1,3]dioxolan-4-ylmethyl)-1H-pyrazol-4-yl]-2-thieno[2,3-c]pyridin-3-yl-furo[2,3-c]pyridin-7-ylamine], the IC50 on TAK1-TAB1 fusion protein is 0.1 to 1 µM; in the experiment on p-p38 in HCT-116 cells it was 1 to 10 µM; in the experiment on pJNK in HCT-116 cells it was 0.1 to 1 µM.
With `Nc1ncc(-c2cnn([C@H]3CC[C@H](O)CC3)c2)c2cc(-c3cccc4cnsc34)oc12` [Example 234, trans-4-{4-[7-amino-2-(1,2-benzothiazol-7-yl)furo[2,3-c]pyridin-4-yl]-1H-pyrazol-1-yl}cyclohexanol], the IC50 at TAK1-TAB1 fusion protein was less than 0.1 µM; in the experiment with p-p38 in HCT-116 cells, 0.1 to 1 µM; with pJNK in HCT-116 cells, less than 0.1 µM.
`Nc1ncc(-c2cnn(C3CCNCC3)c2)c2cc(-c3cccc4cnsc34)oc12` [Example 323, 2-benzo[d]isothiazol-7-yl-4-(1-piperidin-4-yl-1H-pyrazol-4-yl)-furo[2,3-c]pyridin-7-ylamine]: the half-maximal inhibitory concentration (IC50) is less than 0.1 µM at TAK1-TAB1 fusion protein, 0.1 to 1 µM in the experiment with p-p38 in HCT-116 cells and 1 to 10 µM in the experiment with pJNK in HCT-116 cells.
